From patent US20210361566A1, “FORMULATIONS OF 5-HYDROXY TRYPTOPHAN (5-HTP) FOR BETTER BIOAVAILABILITY FOR VARIOUS INDICATIONS” (National University of Singapore, priority 2018, published 2021)

Key:
[1] = Absolute and regional intestinal bioavailability of 5-HTP in humans (oral, colonic, intravenous dosing; plasma LC-MS); type: in vivo; conditions: both sexes, other: colonic (by colonoscopy), human, colonic 200 mg vs IV 50 mg, read-out: absolute bioavailability (F), colonic dosing
Description: Determination of absolute and regional intestinal bioavailability of 5-HTP in humans.
(§1) 5-HTP dosing: The free base form of 5-HTP was used (5-HTP has a water solubility of >10 mg/mL).
Colonic: 5-HTP free base saline solution 200 mg.
Intravenous: 5-HTP free base saline solution 50 mg.
Oral/Upper GI: Two 5-HTP gelatin tablets of 100 mg 5-HTP free base (200 mg total dose).
Subjects: Healthy male and female volunteers aged 18 to 65 years with a body mass index (BMI) of 19 to 28 were eligible for the study. Subjects were admitted to the investigational medical unit (IMU) 2 h before 5-HTP administration and remained at the IMU for 24 h following, for blood sampling and safety assessment. […]
Plasma samples analysis: Plasma samples were stored at −80° C. until analysis. 5-HTP and the metabolite 5-hydroxyindole-acetic-acid (5-HIAA) were quantified by liquid chromatography with mass-spectrometry detection.
Data analysis: The PK data were analyzed using noncompartmental (NCA) and compartmental (mixed effects) mathematical modelling approaches, to calculate area 5-HTP plasma under the curve (AUC) for each subject for each 5-HTP administration.
Results: The human bioavailability of 5-HTP via the various routes of administration above was established in human subjects by administering 5-HTP through these various routes and quantifying the resultant 5-HTP plasma levels at various time points. […]

[2] = Water solubility of 5-HTP free base; type: physicochemical; conditions: free base form
Description: as §1

[3] = Release rate calculation Rinput=(Css×Vd×kel)/F, Scenario 1 (5-HTP without peripheral decarboxylase inhibitor); design: species or system human
From the text: As calculated above, the relative upper GI tract:colon bioavailability was 20% (corresponding to an absolute colonic bioavailability of 4%). Based on the above, according to general teachings in the field of sustained-release drug delivery (Sutton S C. The use of gastrointestinal intubation studies for controlled release development. Br J Clin Pharmacol. 2009 September; 68[3]: 342-54) it is concluded that gastroretentive technologies are needed in order to achieve a desirable extended release profile of 5-HTP together with a desirable sustained and therapeutically active 5-HTP plasma level profile. Further, the determination of the oral bioavailability (Fpo) enables computation of the delivery rate of 5-HTP needed from the dosage form to achieve a given plasma level of 5-HTP at steady state. Moreover, computation of the resultant plasma levels of 5-HTP can be done for embodiments where a peripheral decarboxylase inhibitor (with different levels of effects on 5-HTP bioavailability and elimination half-life) is included in the dosage form.
The desired release rate profile was calculated as follows, for a dosage form disclosed in the present invention when administering 5-HTP without a peripheral decarboxylase inhibitor:
Substituting, we get Rinput=˜25 mg/hr, to achieve average steady-state plasma concentrations of 5-HTP of 1 mg/L (1000 ng/ml).

[4] = co-administration of 5-HTP and a peripheral decarboxylase inhibitor, in some cases; cited from earlier work
[5] = mice; cited from earlier work

For N[C@@H](Cc1c[nH]c2ccc(O)cc12)C(=O)O [5-HTP, 5-hydroxytryptophan], the bioavailability [1] was 4%, the solubility [2] was over 10000 µg/mL and the “Rinput, release rate of 5-HTP needed for average steady-state plasma concentration of 1 mg/L (1000 ng/ml)” value ([3]; Scenario 1: F ~0.2 oral, Vd ~10 L, kel 0.462 h^−1, no peripheral decarboxylase inhibitor) was about 25 mg/h. For the same compound, the “kel, elimination rate constant” value ([3]; calculated from plasma half-life of 1.5 hrs) was 0.462 h⁻¹, the “increase of plasma 5-HTP levels by co-administration of a peripheral decarboxylase inhibitor” value [4] was “one-fold to about fifteen-fold” and the “absorption in the colon” value [5] was “very effectively absorbed”.
